Here are results for 14 molecules from US20240067662A1, “KRAS INHIBITORS” (Bristol-Myers Squibb Company, priority 2022, published 2024).

In this assay the target is GMPPNP-loaded KRAS G12C (Homo sapiens, UniProt P01116, G12C). Nature of the assay: KRAS G12C RAF Disruption Assay (HTRF). The format is biochemical. The following applies: recombinant GMPPNP-loaded KRAS G12C (5 nM), 20 min with compound; GST-RAF1 RBD (9 nM); HTRF signal; read-out: KRASG12C RAF Disruption Assay (IC50). In outline:
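GMPPNP-loaded KRAS G12C (5 nM) was preincubated with compound for 20 min at room temperature in Tris pH 7.5 buffer with NaCl, MgCl2, DTT and BSA. GST-RAF1 RBD (9 nM) was added for 20 min, then SA-Tb (0.25 nM) for 3 h. IC50 was fitted from the HTRF 520/495 ratio.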
`N#CC[C@H]1CN(c2nc(OC[C@@]34CCCN3C[C@H](F)C4)nc3c(F)c(-c4cc(F)ccc4C(F)F)ncc23)CCN1C(=O)/C(F)=C/c1ccccn1` [Example 42, 2-((S)-4-(7-(2-(difluoromethyl)-5-fluorophenyl)-8-fluoro-2-(((2R, 7aS)-2-fluorotetrahydro-1H-pyrrolizin-7a(5H)-yl)methoxy)pyrido[4,3-d]pyrimidin-4-yl)-1-((Z)-2-fluoro-3-(pyridin-2-yl)acryloyl)piperazin-2-yl)acetonitrile]: the IC50 is 760 nM.

For `C#Cc1c(F)ccc2cccc(-c3ncc4c(N5CCN(C(=O)/C(F)=C/c6ccccn6)C[C@@H]5C)nc(OC[C@@]56CCCN5C[C@H](F)C6)nc4c3F)c12` [Compound 89, (Z)-1-((S)-4-(7-(8-ethynyl-7-fluoronaphthalen-1-yl)-8-fluoro-2-(((2R, 7aS)-2-fluorotetrahydro-1H-pyrrolizin-7a(5H)-yl)methoxy)pyrido[4,3-d]pyrimidin-4-yl)-3-methylpiperazin-1-yl)-2-fluoro-3-(pyridin-2-yl)prop-2-en-1-one], the concentration for half-maximal inhibition (IC50) turned out to be 37 nM.

Consider `Cc1ccc2[nH]ncc2c1-c1ncc2c(N3CCN(C(=O)/C(F)=C/c4ccccn4)CC3)nc(OC[C@@]34CCCN3C[C@H](F)C4)nc2c1F` [Example 30, (Z)-2-fluoro-1-(4-(8-fluoro-2-(((2R, 7aS)-2-fluorotetrahydro-1H-pyrrolizin-7a(5H)-yl)methoxy)-7-(5-methyl-1H-indazol-4-yl)pyrido[4,3-d]pyrimidin-4-yl)piperazin-1-yl)-3-(pyridin-2-yl)prop-2-en-1-one], for which the IC50 was 470 nM.

Regarding `N#CC[C@H]1CN(c2nc(OC[C@@]34CCCN3C[C@H](F)C4)nc3c(F)c(N4CCOc5cccc(F)c54)ncc23)CCN1C(=O)/C(F)=C/c1ccccn1` [Example 60, 2-((S)-1-((Z)-2-fluoro-3-(pyridin-2-yl)acryloyl)-4-(8-fluoro-7-(5-fluoro-2,3-dihydro-4H-benzo[b][1,4]oxazin-4-yl)-2-(((2R, 7aS)-2-fluorotetrahydro-1H-pyrrolizin-7a(5H)-yl)methoxy)pyrido[4,3-d]pyrimidin-4-yl)piperazin-2-yl)acetonitrile], the half-inhibitory concentration (IC50) came to 180 nM.

Turning to `C#Cc1cccc2cccc(-c3ncc4c(N(C)C5CCN(C(=O)/C(F)=C/c6nccs6)C5C)nc(OC[C@@]56CCCN5C[C@H](F)C6)nc4c3F)c12` (single isomer, unassigned) [Example 73 trans isomer 1], the IC50 amounted to 1600 nM.

On to `C#Cc1c(F)ccc2cccc(-c3ncc4c(N(C)[C@@H]5CCN(C(=O)/C(F)=C/c6nccs6)C5)nc(OC[C@@]56CCCN5C[C@H](F)C6)nc4c3F)c12` [Compound 118, (Z)-1-((R)-3-((7-(8-ethynyl-7-fluoronaphthalen-1-yl)-8-fluoro-2-(((2R, 7aS)-2-fluorotetrahydro-IH-pyrrolizin-7a(5H)-yl)methoxy)pyrido[4,3-d]pyrimidin-4-yl)(methyl)amino)pyrrolidin-1-yl)-2-fluoro-3-(thiazol-2-yl)prop-2-en-1-one], for which the 50% inhibitory concentration (IC50) is 30 nM.

Regarding `C#Cc1cccc2cccc(-c3ncc4c(N(C)[C@H]5CN(C(=O)/C(F)=C/c6nccs6)C[C@H]5F)nc(OC[C@@]56CCCN5C[C@H](F)C6)nc4c3F)c12` [Compound 129, (Z)-1-((3S,4R)-3-((7-(8-ethynylnaphthalen-1-yl)-8-fluoro-2-(((2R, 7aS)-2-fluorotetrahydro-1H-pyrrolizin-7a(5H)-yl)methoxy)pyrido[4,3-d]pyrimidin-4-yl)(methyl)amino)-4-fluoropyrrolidin-1-yl)-2-fluoro-3-(thiazol-2-yl)prop-2-en-1-one], the half-inhibitory concentration (IC50) was found to be 200 nM.

With `C#Cc1c(F)ccc2cc(O)cc(-c3ncc4c(N5CCN(C(=O)/C(F)=C/c6ccccn6)C[C@@H]5C)nc(OC[C@@]56CCCN5C[C@H](F)C6)nc4c3F)c12` [Example 65, (Z)-1-((S)-4-(7-(8-ethynyl-7-fluoro-3-hydroxynaphthalen-1-yl)-8-fluoro-2-(((2R, 7aS)-2-fluorotetrahydro-1H-pyrrolizin-7a(5H)-yl)methoxy)pyrido[4,3-d]pyrimidin-4-yl)-3-methylpiperazin-1-yl)-2-fluoro-3-(pyridin-2-yl)prop-2-en-1-one], the half-maximal inhibitory concentration (IC50) is 4.5 nM.

Consider `N#CC[C@H]1CN(c2nc(OC[C@@]34CCCN3C[C@H](F)C4)nc3c(F)c(-c4cc(F)ccc4C(F)(F)F)ncc23)CCN1C(=O)/C(F)=C/c1nccs1` [Example 45, 2-((S)-1-((Z)-2-fluoro-3-(thiazol-2-yl)acryloyl)-4-(8-fluoro-7-(5-fluoro-2-(trifluoromethyl)phenyl)-2-(((2R, 7aS)-2-fluorotetrahydro-1H-pyrrolizin-7a(5H)-yl)methoxy)pyrido[4,3-d]pyrimidin-4-yl)piperazin-2-yl)acetonitrile], for which the IC50 was found to be 460 nM.

For the molecule `C#Cc1cccc2cccc(-c3ncc4c(N(C)[C@@H]5CCN(C(=O)/C(F)=C/c6nccs6)C5)nc(OC[C@@]56CCCN5C[C@H](F)C6)nc4c3F)c12` [Compound 116, (Z)-1-((R)-3-((7-(8-ethynylnaphthalen-1-yl)-8-fluoro-2-(((2R, 7aS)-2-fluorotetrahydro-1H-pyrrolizin-7a(5H)-yl)methoxy)pyrido[4,3-d]pyrimidin-4-yl)(methyl)amino)pyrrolidin-1-yl)-2-fluoro-3-(thiazol-2-yl)prop-2-en-1-one], the IC50 was determined as 27 nM.

For `N#CC[C@H]1CN(c2nc(OC[C@@]34CCCN3C[C@H](F)C4)nc3c(F)c(-c4cc(O)ccc4C(F)(F)F)ncc23)CCN1C(=O)/C(F)=C/c1nccs1` [Compound 95, 2-((S)-4-(8-fluoro-2-(((2R, 7aS)-2-fluorotetrahydro-1H-pyrrolizin-7a(5H)-yl)methoxy)-7-(5-hydroxy-2-(trifluoromethyl)phenyl)pyrido[4,3-d]pyrimidin-4-yl)-1-((Z)-2-fluoro-3-(thiazol-2-yl)acryloyl)piperazin-2-yl)acetonitrile], the concentration for half-maximal inhibition (IC50) was found to be 14 nM.

For the molecule “(Z)-1-(4-(7-(2-amino-7-fluorobenzo[d]thiazol-4-yl)-8-fluoro-2-(((2R, 7aS)-2-fluorotetrahydro-1H-pyrrolizin-7a(5H)-yl)methoxy)pyrido[4,3-d]pyrimidin-4-yl)piperazin-1-yl)-2-fluoro-3-(thiazol-2-yl)prop-2-en-1-one [Example 68]”, the IC50 was determined as 220 nM.

On to `C#Cc1cccc2cccc(-c3ncc4c(N5C[C@H]6CN(C(=O)/C(F)=C/c7ccccn7)C[C@H]6C5)nc(OC[C@@]56CCCN5C[C@H](F)C6)nc4c3F)c12` [Compound 100, (Z)-1-((3aR, 6aS)-5-(7-(8-ethynylnaphthalen-1-yl)-8-fluoro-2-(((2R, 7aS)-2-fluorotetrahydro-1H-pyrrolizin-7a(5H)-yl)methoxy)pyrido[4,3-d]pyrimidin-4-yl)hexahydropyrrolo[3,4-c]pyrrol-2(1H)-yl)-2-fluoro-3-(pyridin-2-yl)prop-2-en-1-one], for which the IC50 was determined as 5300 nM.

On to `C#Cc1c(F)ccc2cc(O)cc(-c3ncc4c(N5C[C@H]6CC[C@@H](C5)N6C(=O)/C(F)=C/c5cc(C)ccn5)nc(OC[C@@]56CCCN5C[C@H](F)C6)nc4c3F)c12` [Compound 3, (Z)-1-((1R, 5S)-3-(7-(8-ethynyl-7-fluoro-3-hydroxynaphthalen-1-yl)-8-fluoro-2-(((2R, 7aS)-2-fluorotetrahydro-1H-pyrrolizin-7a(5H)-yl)methoxy)pyrido[4,3-d]pyrimidin-4-yl)-3,8-diazabicyclo[3.2.1]octan-8-yl)-2-fluoro-3-(4-methylpyridin-2-yl)prop-2-en-1-one], for which the IC50 amounted to 19 nM.
